Source: patent US20250009830A1 (priority 2021, published 2025)
Like-named read-outs stand apart in the source and are kept apart here.

How the values were obtained:
Assay in all cases: microbe, parasite or virus in culture
Assay type in all cases: cell-based
Conditions in all cases: read-out: IC50 of the main compounds of EC 3.2
[1] = test system: SARS-CoV-2 Wuhan type (SARS-CoV-2PR-1)
SARS-CoV-2 Alpha = test system: SARS-CoV-2 Alpha
SARS-CoV-2 Beta = test system: SARS-CoV-2 Beta
SARS-CoV-2 Gamma = test system: SARS-CoV-2 Gamma
SARS-CoV-2 Delta = test system: SARS-CoV-2 Delta
SARS-CoV-2 Omicron = test system: SARS-CoV-2 Omicron
[2] = Severe acute respiratory syndrome coronavirus 2, Calu-3, calculated from EC 3.2 IC50 and HPLC analysis (Table 4)
[3] = Calu-3, calculated from EC 3.2 IC50 and HPLC analysis (Table 4)

SMILES	IC50 [1, 2] [µM]	IC50 (SARS-CoV-2 Alpha; [2]) [µM]	IC50 (SARS-CoV-2 Beta; [2]) [µM]	IC50 (SARS-CoV-2 Gamma; [2]) [µM]	IC50 (SARS-CoV-2 Delta; [2]) [µM]	IC50 (SARS-CoV-2 Omicron; [2]) [µM]	IC50 [1, 3] [µM]	IC50 (SARS-CoV-2 Alpha; [3]) [µM]	IC50 (SARS-CoV-2 Beta; [3]) [µM]	IC50 (SARS-CoV-2 Gamma; [3]) [µM]	IC50 (SARS-CoV-2 Delta; [3]) [µM]	IC50 (SARS-CoV-2 Omicron; [3]) [µM]
O=C(/C=C/c1ccc(O)c(O)c1)O[C@@H]1C[C@](O)(C(=O)O)C[C@@H](O)[C@H]1O [Chlorogenic acid]	6.6	27	20	20	13	13						
OC[C@H]1O[C@@H](Oc2cc(O)cc3[o+]c(-c4ccc(O)c(O)c4)c(O[C@@H]4O[C@H](CO)[C@@H](O)[C@H](O)[C@H]4O[C@@H]4OC[C@@H](O)[C@H](O)[C@H]4O)cc23)[C@H](O)[C@@H](O)[C@@H]1O [Cyanidin-3-sambubioside-5-glucoside]							6	24	18	18	12	12
OC[C@H]1O[C@@H](Oc2cc3c(O)cc(O)cc3[o+]c2-c2ccc(O)c(O)c2)[C@H](O[C@@H]2OC[C@@H](O)[C@H](O)[C@H]2O)[C@@H](O)[C@@H]1O [Cyanidin-3-sambubioside]							35	142	107	107	71	71
OC[C@H]1O[C@@H](Oc2cc3c(O)cc(O)cc3[o+]c2-c2ccc(O)c(O)c2)[C@H](O)[C@@H](O)[C@@H]1O [Cyanidin-3-glucoside]							41	165	123	123	82	82
C[C@@H]1O[C@@H](OC[C@H]2O[C@@H](Oc3c(-c4ccc(O)c(O)c4)oc4cc(O)cc(O)c4c3=O)[C@H](O)[C@@H](O)[C@@H]2O)[C@H](O)[C@H](O)[C@H]1O [Rutin]	17	68	51	51	34	34						
O=c1c(O[C@@H]2O[C@H](CO)[C@@H](O)[C@H](O)[C@H]2O)c(-c2ccc(O)c(O)c2)oc2cc(O)cc(O)c12 [Isoquercitrin]	1.3	5.4	4	4	2.7	2.7						
